{"source": "paper PMC6285983", "about": "“Novel broad spectrum virucidal molecules against enveloped viruses” (PLoS ONE, 2018)", "key": {"[1]": {"system": "HPV-16", "assay": "HPV-16 inhibition assay on HeLa cells", "assay_type": "cell-based, HPV-16 pseudovirions", "experimental": "HeLa cells were plated in 96-well plates. […] The GFP-expressing infected cells were observed under an inverted Zeiss LSM510 fluorescence microscope (Zeiss, Oberkochen, Germany) and the percentages of infection were calculated by comparing GFP positive cells in treated and untreated wells."}, "[2]": {"system": "HSV-2", "assay": "Viral yield reduction, post treatment", "conditions": "Human alphaherpesvirus 2"}, "[3]": {"assay": "Cell viability MTS assay on Vero cells", "conditions": "African green monkey"}, "[4]": {"assay": "Cell viability MTS assay, conditions of the HCMV assay", "assay_type": "cell-based", "conditions": "human, HELF cells", "experimental": "(§1) Cell viability was measured using the MTS [3- (4,5-dimethylthiazol-2-yl)-5- (3 carboxy methoxy phenyl)-2-(4-sulfophenyl)-2H-tetrazolium] assay. Cell cultures were seeded in 96-well plates and were incubated with different concentrations of compounds in duplicate under the same experimental conditions described for the antiviral assays, (i.e. if the incubation time of the compound on cells was carried for 2 hours and then the evaluation of the antiviral activity was done 72h later, the same timing was used for the cytotoxicity assays, in order to exclude any toxicity effect in the antiviral evaluation). Cell viability was determined using the CellTiter 96 Proliferation Assay Kit (Promega, Madison, WI, USA) according to the manufacturer's instructions. Absorbances were measured using a Microplate Reader (Model 680, BIORAD) at 490 nm. The effect on cell viability at different concentrations of the compound was expressed as a percentage, by comparing absorbances of treated cells with those of cells incubated with culture medium and equal volumes of vehicle. […]\nHELF cells were pre-plated in a 96-well plate. […] After five days incubation, cells were observed under an inverted Zeiss LSM510 fluorescence microscope (Zeiss, Oberkochen, Germany) and the percentages of infection were calculated by comparing GFP positive cells in treated and untreated wells."}, "[5]": {"assay": "Cell viability MTS assay, conditions of the HRoV assay", "assay_type": "cell-based", "conditions": "African green monkey, MA104 cells", "experimental": "as §1, with “vehicle. The 50% cytotoxic concentrations (CC50) and 95% confidence intervals (CIs) were determined using Prism software (Graph-Pad Software, San Diego, CA). For compound 9d a continuous incubation of 1, 2, 3 and 4 days on Vero cells was carried in order to evaluate the toxicity after long exposure the results are shown in S1 Fig and Fig 3.” for “vehicle.”"}, "[6]": {"system": "HSV-2", "assay": "Binding assay (qPCR, immunostaining, IF)", "assay_type": "cell-based", "conditions": "10 μM, HSV-2 MOI 10, 2 h on Vero cells at 4°C", "experimental": "(§2) Since the observed irreversible effect can be exerted at different stages of viral infection, we investigated more in detail if compound 9d produced a physical disruption of the virus, thus preventing its attachment to the cells or a successive irreversible modification. We performed entry and binding assays, evaluating the amount of bound virus through immunostaining or qPCR. […] On the contrary, when entry assays were performed, it was possible to observe a reduction in the amount of virus associated to the cells (Fig 7D). […]\n(§3) Cells were plated on coverslips and the following day the binding or entry protocol described above was applied. […] Rhodamine conjugated anti-rabbit (Santa Cruz) was then added on cells for 1 h at 37°C following 3 washes coverslips were mounted on microscope glasses and observed with Zeiss LSM510 fluorescence microscope (Zeiss, Oberkochen, Germany) and images were acquired.\nCells subjected to binding assays were then lysed and subjected to total DNA/RNA extraction and subsequently subjected to qPCR using as primers 5’- […] -3’ and 5’-[…] -3’ and as probe 5’-FAM […] -TAMRA for 40 cycles at 94°C for 15” followed by 60°C for 60”. The results were normalized according to values of rnasep and the % of bound virus were measured comparing the Δct of treated wells to wells treated with equal volume of solvent."}, "[7]": {"system": "RSV", "assay": "RSV inhibition assay on Hep-2 cells", "assay_type": "cell-based, RSV strain A2", "conditions": "human respiratory syncytial virus", "experimental": "HeP-2 cells were pre-plated in a 96-well plate. […] 72 h later cells were fixed and subjected to specific immunostaining using an RSV monoclonal antibody (Ab35958; Abcam, Cambridge, United Kingdom) in order to visualize syncytia."}, "[8]": {"assay": "Cell viability MTS assay, conditions of the RSV assay", "assay_type": "cell-based", "conditions": "human, Hep-2 cells", "experimental": "as §1, with “vehicle. The 50% cytotoxic concentrations (CC50) and 95% confidence intervals (CIs) were determined using Prism software (Graph-Pad Software, San Diego, CA). For compound 9d a continuous incubation of 1, 2, 3 and 4 days on Vero cells was carried in order to evaluate the toxicity after long exposure the results are shown in S1 Fig and Fig 3.” for “vehicle.”"}, "[9]": {"system": "HSV-2", "assay": "Time of addition: during infection, no preincubation", "assay_type": "cell-based", "conditions": "Human alphaherpesvirus 2; during-infection assay, virus and compound added simultaneously"}, "[10]": {"assay": "In vitro lipoperoxidation test (TBA assay, MDA)", "conditions": "DPPC liposomes, 37°C, 30 minutes"}, "[11]": {"system": "HSV-2", "assay": "Entry assay", "assay_type": "cell-based", "conditions": "10 μM, HSV-2 MOI 10", "experimental": "as §2, with “7D). With this assay, the signal from the virus could be related to virus in the cytoplasm or blocked in the endosomes, since the treatment with acidic glycine is affecting only the virus at the surface of the cell.” for “7D).”\nas §3"}, "[12]": {"system": "HSV-2", "assay": "HSV-2 plaquing efficiency assay, compound preincubated with virus 1 h at 37°C", "assay_type": "cell-based", "conditions": "Human alphaherpesvirus 2, HSV-2, Vero cells, 1 h pre-incubation virus/compound"}}, "data": [{"smiles": "CC(C)c1ccc(CCN2C(=O)/C(=C/c3ccc(-c4ccc(C(=O)O)c(O)c4)o3)SC2=S)cc1", "note": "[Compound 9d, (Z)-2-hydroxy-4-(5-((3-(4-isopropylphenethyl)-4-oxo-2-thioxothiazolidin-5-ylidene)methyl)furan-2-yl)benzoic acid]", "values": [{"measurement": "antiviral activity against non-enveloped virus", "setting": "[1]", "value": "inactive"}, {"measurement": "EC50", "setting": "[2]", "value": 0.0339, "unit": "µM"}, {"measurement": "CC50", "setting": "[3]; CC50, Vero cells, MTS", "value": 2.09, "unit": "µM"}, {"measurement": "CC50 at 96 h", "setting": "[3]; CC50, Vero cells, after 96h exposure", "value": 2.09, "unit": "µM"}, {"measurement": "CC50", "setting": "[3]; CC50, conditions of HSV-1 assay", "value": 2.09, "unit": "µM"}, {"measurement": "CC50", "setting": "[3]; CC50, conditions of HSV-2 acyclovir resistant assay", "value": 2.09, "unit": "µM"}, {"measurement": "CC50", "setting": "[3]; CC50, conditions of ZIKAV assay", "value": 8.85, "unit": "µM"}, {"measurement": "CC50 at 3 h", "setting": "[4]", "value": 5.24, "unit": "µM"}, {"measurement": "CC50 at 1 h", "setting": "[5]", "value": 156, "unit": "µM"}, {"measurement": "viral binding capability", "setting": "[6]", "value": "not altering viral binding capability"}, {"measurement": "EC50", "setting": "[7]; read-out: EC50 (95% C.I.)", "value": 0.0548, "unit": "µM"}, {"measurement": "EC90", "setting": "[7]; read-out: EC90 (95% C.I.)", "value": 0.221, "unit": "µM"}, {"measurement": "CC50 at 3 h", "setting": "[8]", "value": 17, "unit": "µM"}, {"measurement": "EC50", "setting": "[9]", "value": 0.147, "unit": "µM"}, {"measurement": "lipid peroxidation of linoleic acid (MDA)", "setting": "[10]", "value": "remarkable lipid peroxidation"}, {"measurement": "amount of virus associated to the cells", "setting": "[11]", "value": "reduction"}, {"measurement": "EC50", "setting": "[12]; plaques at 24 h, read-out: EC50 (95% C.I.)", "value": 0.00655, "unit": "µM"}, {"measurement": "EC90", "setting": "[12]; read-out: EC90 (95% C.I.)", "value": 0.04, "unit": "µM"}]}]}
